System: Xenopus laevis embryos
Test: Embryonic morphology after PMA treatment
Type: in vivo
Details: added 21 hours after fertilization, 18° C. for 30 hours; untreated showed typical neurula
Experimental: Embryos were sorted for successful cleavage to 2 cells (1.5 hours after fertilization), split into groups for subsequent treatment (triplicate treatments per each experimental group) and visually monitored for normal embryonic morphology. Rates of abnormal morphology were recorded for each group. Embryos at stage 8 were obtained after incubation of the fertilized embryos at 23° C. for 5 hours. PMA (100 ng/ml) or DMSO (0.01%, solvent used to dissolve PMA) was added to the embryos 2 hours after fertilization. […] Embryos at stage 15 were obtained after incubation of the fertilized embryos at 18° C. for 30 hours (the condition produced stage 15 embryos identical to embryos obtained at 23° C. for 10 hours). PMA or DMSO was added to the embryos 21 hours after fertilization.

Structure (SMILES): CCCCCCCCCCCCCC(=O)O[C@@H]1[C@@H](C)[C@@]2(O)[C@@H](C=C(CO)C[C@@]3(O)C(=O)C(C)=C[C@@H]23)[C@@H]2C(C)(C)[C@]12OC(C)=O [4 alpha-PMA]
- embryo morphology / developmental stage reached: typical neurula morphology

Reference: patent US20080145858A1, “DETECTION AND IDENTIFICATION OF TOXICANTS BY MEASUREMENT OF GENE […]” (priority 2003, published 2008)
